ChEMBL document CHEMBL4402586, “2-Aminophenylpyrimidines as Novel Inhibitors of Aminoacyl-tRNA Synthetase Interacting Multifunctional Protein 2 (AIMP2)-DX2 for Lung Cancer Treatment” (J Med Chem, 2020)
Calls of active or inactive are those of the source. The calls are words filed in the database; no cut-off is given here.

How the values were obtained:
NSCLC = test: Growth inhibition of human NSCLC; assay type: functional
[1] = biological target: T1, Aminoacyl tRNA synthase complex-interacting multifunctional protein 2 (Homo sapiens) (UniProt Q13155); test: Inhibition of DX2-p14/ARF interaction in human SCLC cells assessed as inhibition of cell growth by MTT assay; assay type: cell-based
T1 sequence (whole entry): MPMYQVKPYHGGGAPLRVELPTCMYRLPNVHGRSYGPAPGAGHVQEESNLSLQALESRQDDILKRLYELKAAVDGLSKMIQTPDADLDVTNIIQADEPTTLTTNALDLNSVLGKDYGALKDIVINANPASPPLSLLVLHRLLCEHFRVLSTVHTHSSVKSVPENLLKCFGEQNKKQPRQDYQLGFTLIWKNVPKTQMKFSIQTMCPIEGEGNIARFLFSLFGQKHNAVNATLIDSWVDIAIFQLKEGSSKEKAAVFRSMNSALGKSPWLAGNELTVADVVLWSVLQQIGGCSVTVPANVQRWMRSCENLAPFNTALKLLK

NCI-H460 [2] = test: Growth inhibition of human NCI-H460 cells incubated for 72 hrs by MTT assay; assay type: functional; settings: NCI-H460, 72 h
A549 [3] = test: Growth inhibition of human A549 cells incubated for 72 hrs by MTT assay; assay type: functional; settings: A549, 72 h
Calu-6 = test: Growth inhibition of human Calu6 cells incubated for 72 hrs by MTT assay; assay type: functional; settings: Calu-6, 72 h
NCI-H1299 = test: Growth inhibition of human NCI-H1299 cells incubated for 72 hrs by MTT assay; assay type: functional; settings: NCI-H1299, 72 h
[4] = Growth inhibition of human WI26 cells incubated for 72 hrs by MTT assay
NCI-H460 [5] = test: Effect on AIMP2 DX2 isoform mRNA expression in human NCI-H460 cells at 1.2 to 10 uM by RT-PCR analysis; assay type: ADME, cell-based; settings: nci-h460, 10 µM
NCI-H460 [6] = test: Antitumor activity against human NCI-H460 cells xenografted in BALB/c mouse assessed as decrease in tumor size at 40 mg/kg, ip dosed every other day for 13 days; assay type: functional, organism-based
NCI-H460 [7] = test: Antitumor activity against human NCI-H460 cells xenografted in BALB/c mouse assessed as decrease in tumor volume at 40 mg/kg, ip dosed every other day for 13 days; assay type: functional, organism-based
[8] = Toxicity in BALB/c mouse xenografted with human NCI-H460 cells at 40 mg/kg, ip dosed every other day for 13 days; assay type: organism-based; settings: in vivo, 312 h
Mus musculus [9] = test: Effect on tumor AIMP2 expression in BALB/c mouse xenografted with human NCI-H460 cells at 40 mg/kg, ip dosed every other day for 13 days by SDS-PAGE and Western blotting analysis; assay type: ADME, organism-based; settings: in vivo, 312 h
[10] = Toxicity in BALB/c mouse xenografted with human NCI-H460 cells assessed effect on body weight at 40 mg/kg, ip dosed every other day for 13 days; assay type: organism-based; settings: in vivo, 312 h
[11] = Drug level in tumor of BALB/c mouse xenografted with human NCI-H460 cells […] at 40 mg/kg, ip dosed every other day for 13 days; assay type: ADME, organism-based, Neoplasm; settings: read-out: Drug uptake
Mus musculus [12] = organism: Mus musculus; settings: BALB/c, 40 mg/kg
Description: Inhibition of tumor AIMP2-DX2 expression in BALB/c mouse xenografted with human NCI-H460 cells at 40 mg/kg, ip dosed every other day for 13 days by SDS-PAGE and Western blotting analysis

A549 [13] = test: Growth inhibition of human A549 cells by MTT assay; assay type: functional

Row | GI50 [1] [µM] | GI50 (NCI-H460 [2]) [µM] | GI50 (A549 [3]) [µM] | GI50 (Calu-6) [µM] | GI50 (NCI-H1299) [µM] | GI50 (A549 [13]) [µM] | Structure (SMILES) | GI50 (NSCLC) [µM] | growth inhibition (GI) [4] | Activity (NCI-H460 [5]) | Activity (NCI-H460 [6]) | Activity (NCI-H460 [7]) | Activity [8] | Activity (Mus musculus [9]) | Activity [10] | concentration at 312 h [11] [µM] | inhibition (Mus musculus [12])
1 | 5 to 10 | – | – | – | – | – | CC1(C)Oc2cc3oc(=O)ccc3cc2C[C@@H]1OC(=O)/C=C/c1ccco1 | > 50 | – | – | – | – | – | – | – | – | –
2 | – | 0.6 | 2.82 | 4.4 | 4.18 | – | COC1CCCN(c2cc(-c3ccc(Cl)cc3)nc(Nc3cccc(OCCN4CCN(C)CC4)c3)n2)C1 (stereo not drawn) | – | Non-Toxic | Non-Toxic | Active | Active | Non-Toxic | Non-Toxic | Non-Toxic | 62.7 | Active
3 | – | 0.89 | 1.13 | 4.22 | 5.78 | – | CN1CCN(CCOc2cccc(Nc3nccc(-c4ccc(Cl)cc4)n3)c2)CC1 | – | Non-Toxic | Non-Toxic | Active | Active | – | Non-Toxic | Non-Toxic | 0.088 | Active
4 | – | – | – | – | – | 6.5 | CN1CCN(CCOc2cccc(Nc3nc(-c4ccc(Cl)cc4)cc(N4CCOCC4)n3)c2)CC1 | – | – | – | – | – | – | – | – | – | –
